# Assay results taken from patent publication US4483989A, “Synthesis of pyrido[4,3-b]carbazole derivatives” (priority 1973, dated 1984).
# “Also recorded” adds a separate entry of the source.
# What was measured:
# [1] = tested on: mouse L 1210 leukemia; experiment: L1210 leukemia in mice: inoculum of 10^5 cells, single dose of compound 24 hours later; type: in vivo
# From the text: The experimental tumor mouse L 1210 leukemia is commonly used to evaluate the effects of all the antitumor compounds now used in human therapeutics,as was described, for example, by C. C. ZUBROD in Proc. Nat. Acad. Sci. USA 69, 1972, pp. 1042-1047. This experimentally formed tumoral system permits very accurate quantitative evaluation of the activity of the compound tested and also, consequently, an objective comparison of the respective activities of various compounds, for example, according to the methods described by H. E. SKIPPER, F. M. SCHABEL Jr. and W. S. WILCOX in Cancer Chemiother. Rep. 1964, pp. 1-111 and 45, 1965, pp. 5-28.
# (§1) The mice were randomized in each experimental series. A first routine experiment enable the death rate by toxicity to be determined and thus established the sublethal doses.
# According to the convention in force in this field, the animals which survived longer than 45 days after inoculation of tumoral cells were considered to be cured.
# (§2) To evaluate the therapeutic activity of the compounds of the invention, doses of said compound were expressed basing them on the 30 days sublethal dose which was fixed at 1.
# A--A tumoral inoculum of 10^5 L1210 leukemia cells was administered by the intraperitoneal way to twenty 2 to 3 months old DBA/2 strain female mice. 24 hours later, half of said mice received a single intraperitoneal injection of a variable dose of the compound to be tested and the same volume of solvent was administered to the other half of the mice by the same way; this latter half of the group of mice was therefore used as the control series. The mice were randomized in each experimental series.
# Animals surviving for longer than 45 days were considered to be cured.
# [2] = Autoradiography with 14C-labeled molecules (biodisponibility); type: in vivo
# From the text: To understand the increase of the antitumor efficiency of the quaternarized compounds, several parameters of action of 9--OH--E and its methyl derivative have been comparatively established (see table III). Both compounds have about the same affinity for DNA. On a weight basis, the methyl compound is about 10 times more toxic in mice but also 10 times more efficient on leukemic mice (ILS). […] Therefore, there is no quantitative parallel between the in vivo and in vitro action of these drugs. The N-quaternization markedly changes the biodisponibility of the drugs as shown by autoradiography with ^14 C-labeled molecules. […] Several ellipticine derivatives are mutagenic on Ames Salmonella test; however, the quaternized derivatives lose this property. The microsomes, which are able to metabolize some ellipticines, increase the mutagenic ability of these drugs in vitro. […] Due to the curved shape of their molecules, their relative hydrophobicity, and the presence of a heterocyclic nitrogen, the ellipticines are good substrates for the cytochrome P450 system, provided that the 2-N remains uncharged.
# [3] = tested on: L1210 cells; experiment: Rate of L1210 cells multiplication in vitro; type: cell-based, mouse
# [4] = biological target: DNA; experiment: DNA affinity; type: binding
# [5] = From the text: as §1, §2
# [6] = mouse, in vivo
# [7] = tested on: mouse P 388 leukemia; experiment: P 388 leukemia in mice, same procedure, inoculum of 10^5 cells; type: in vivo; conditions: same doses, compared with L1210 leukemia
# From the text: The effect the compounds of the invention have on mouse L 1210 or P 388 leukemias was used to test the antitumor activity of said compounds.
# B-The same procedure was used as in A, but after a tumoral inoculum of 10^5 P 388 leukemia cells had been injected to the mice. The therapeutic activity of the 9-hydroxy 2-methyl-ellipticinium was similar on this mouse P 388 leukemia to that obtained on mouse L1210 leukemia, using the same doses.
# [8] = tested on: advanced breast, thyroid, or colon cancers; experiment: Phase I trial, weekly intravenous dose, refractory patients; type: in vivo, human
# Experimental: A phase I trial was done at the Cancer Institute of 14-Caen, France. A weekly dose in the range of 50 to 100 mg per m2 was given intravenously over a 30 minutes period to patients refractory to usual chemotherapeutic or radiotherapeutic treatments (3). […] They were suffering from advanced breast, thyroid, or colon cancers, with bone or lung metastasis in mostcases.
smiles,measurement,setting,value
"Cc1c2cc[n+](C)cc2c(C)c2c1[nH]c1ccc(O)cc12 [9-hydroxy 2-methyl ellipticinium acetate, 9-hydroxy-2-methyl-ellipticinium acetate]",Doses smaller than the doses of 9-hydroxy-ellipticine necessary to obtain a comparable result,[1]; L1210 leukemia,about 10 times
same,ED (ILS 25%),"[1]; Mus musculus, L1210, ip, mice, read-out: L 1210 cells: in vivo dose to reach ILS 25%",1 mg/kg
same,Cured mouse surviving more than 45 days,"[1]; footnote of table IV, I.P., 10^5 L1210 cells",1 out of 20 mice
same,"Efficiency on leukemic mice (ILS) relative to 9--OH--E, on a weight basis","[1]; mouse, in vivo",about 10 times
same,Elimination,[2],elimination through feces is reduced
same,Organ distribution (autoradiography),[2]; listed as methyl derivative,devoid of any ability to concentrate in lungs and pancreas; also recorded: capacity to concentrate in the intestinal walls and in the thyroid
same,Activity on the rate of growth of L1210 cells in vitro relative to 9--OH--E,[3],four times less active
same,Kd,[4],0.769 µM
same,"Toxicity in mice relative to 9--OH--E, on a weight basis",[5],about 10 times
same,LDo (highest non lethal dose / sublethal dose) for mice,[5]; route not given,5 mg/kg
same,Metabolism,[6],excreted with no major modification
same,Therapeutic activity on mouse P 388 leukemia,[7],similar
same,Activity on human tumors,"[8]; human, in vivo",active on some human tumors
same,Toxic side effects,[8]; phase I trial,No major toxic side effects
same,Patients with subjective or objective improvements,[8]; weekly 50 to 100 mg per m2 intravenously over 30 minutes,Eight of the first 18 patients
